Laboratory results reported in patent US20260217732A1, “WRN INHIBITOR” (SUZHOU PUHE BIOPHARMA CO., LTD., priority 2022, published 2026).
Like-named read-outs stand apart in the source and are kept apart here.

Experiments:
WRN enzyme = molecular target: T1, WRN enzyme (Homo sapiens, UniProt Q14191); test: WRN helicase hydrolysis (unwinding) of double-stranded DNA, fluorescence assay; format: biochemical; conditions: 30 min pre-incubation, 60 min reaction
T1 construct: 10 μL (2×) of WRN enzyme solution was added
Description: • The molecules of the present disclosure were tested for their activities on the WRN helicase hydrolysis of double-stranded DNA (Table 1).
A working solution to be tested and a buffer were prepared. The compound to be tested was dissolved in DMSO and subjected to 4× dilution (with 10 μM final concentration as the starting concentration). 0.2 μL of the solution of the compound to be tested was added to the 384-well plate and 10 μL (2×) of WRN enzyme solution was added. The solution was incubated in the dark for 30 minutes. Then, 10 μL of a substrate detection solution containing double-stranded DNA was added to initiate the reaction (the DNA has a length of 19 bp, and labeled with TAMRA and BHQ2 at 3′ and 5′-ends, respectively). The solution was incubated at room temperature for 60 minutes. The inhibitory activities (IC50) against WRN enzyme were calculated based on the change of Ex530/Em590 in the blank group (DMSO) and the compound group.

[1] = test system: HT-29 colorectal cancer cells; test: 2D antiproliferation on MSS HT-29 cells, CTG, 5 days; format: cell-based; conditions: Homo sapiens, 120 h, HT-29 MSS
Description: The molecules of the invention were tested for their anti-proliferative activities on MSS tumor cells.
HT-29 colorectal cancer cells with MSS were cultured in a McCoy's 5A medium containing 10% FBS and 1% penicillin-streptomycin in a 37° C., 5% CO2 constant temperature incubator. 40 μL of cell suspension was added to each well of a 384-well microplate. […] of compounds with different concentrations were added to each well using Echo. The mixtures were cultured in a 37° C., 5% CO2 constant temperature incubator for 5 days. 40 μL of CTG solution (Promega, Cat No. G7573) was added to each well, and the mixture was incubated in a 37° C., 5% CO2 constant temperature incubator for 30 minutes in the dark. The luminescence value was read using an Envision multi-function microplate reader (Perkin Elmer, catalog number Envision 2104). The optical signal is proportional to the amount of ATP in the system, while the ATP content directly characterizes the number of viable cells in the system.

[2] = test system: SW48 colorectal cancer cells; test: 2D antiproliferation on MSI-H SW48 cells, CTG, 5 days; format: cell-based; conditions: for IC50 / inhibition at 38.15 pM / inhibition at 0.000152588 µM / inhibition at 0.000610352 µM / inhibition at 0.00976562 µM / inhibition at 0.0390625 µM / inhibition at 0.15625 µM / inhibition at 0.625 µM / inhibition at […] / inhibition at 10 µM / inhibition at 0.00244141 µM: Homo sapiens; for IC50: 120 h, SW48 MSI-H, 5 days; for inhibition at 38.15 pM: SW48, 0.038146973 nM; for inhibition at 0.000152588 µM: SW48, 0.152587891 nM; for inhibition at 0.000610352 µM: SW48, 0.610351563 nM; for inhibition at 0.00976562 µM: SW48, 9.765625 nM; for inhibition at 0.0390625 µM: SW48, 39.0625 nM; for inhibition at 0.15625 µM: SW48, 156.25 nM; for inhibition at 0.625 µM: SW48, 625 nM; for inhibition at […]: SW48, 2500 nM; for inhibition at 10 µM: SW48, 10000 nM; for inhibition at 0.00244141 µM: SW48, 2.44140625 nM
Description: The molecules of the present disclosure were tested for their anti-proliferative activity on MSI-H tumor cells.
SW48 colorectal cancer cells with MSI were cultured in a RMI1640 medium containing 10% FBS and 1% penicillin-streptomycin, and the mixture was cultured in a 37° C., 5% CO2 incubator. 40 μL of cell suspension was added to each well of a 384-well microplate. […] of compounds with different concentrations were added to each well using Echo, and the mixtures were cultured in a 37° C., 5% CO2 incubator for 5 days. 40 μL of CTG solution (Promega, Cat No. G7573) was added to each well and incubated in a 37° C., 5% CO2 incubator in the dark for 30 minutes. The luminescence value was read using an Envision multi-function microplate reader (Perkin Elmer, catalog number Envision 2104). The optical signal is proportional to the amount of ATP in the system, while the ATP content directly characterizes the number of viable cells in the system.

[3] = test system: SW48 (MSI-H) colorectal cancer tumor cells; test: In vivo efficacy, SW48 xenograft in nude mice; set-up: species or system BALB/c nude mice; conditions: QD, oral; for TGI: 21 days; for Tumor Volume D 1: day 1; for Tumor volume D 21: day 21
Description: In vivo efficacy experiment in BALB/C nude mice. Details are as follows:
SW48 (MSI-H) colorectal cancer tumor cells were cultured (in an L15 medium with 10% fetal bovine serum), and inoculated into 6-8 week old female BALB/c nude mice (with body weight of about 20 g). All the mice were inoculated subcutaneously. The mice were raised in an SPF-grade experimental environment, and all the mice were free to take commercially certified standard diets. When the tumors grew to an average volume of about 160 mm^3 in mice, the test compound was orally administered daily. […] The tumor volume was measured with a two-dimensional caliper three times a week, and the animals were weighed every day. […] The volume calculation formula is: V=1/2a*b^2, where a represents the long diameter of the tumor and b represents the short diameter of the tumor.

[4] = read-out: Average Value/Inhibition Rate
[5] = read-out: Test 1/Inhibition Rate
[6] = read-out: Test 2/Inhibition Rate

T1 sequence (Q14191 whole entry): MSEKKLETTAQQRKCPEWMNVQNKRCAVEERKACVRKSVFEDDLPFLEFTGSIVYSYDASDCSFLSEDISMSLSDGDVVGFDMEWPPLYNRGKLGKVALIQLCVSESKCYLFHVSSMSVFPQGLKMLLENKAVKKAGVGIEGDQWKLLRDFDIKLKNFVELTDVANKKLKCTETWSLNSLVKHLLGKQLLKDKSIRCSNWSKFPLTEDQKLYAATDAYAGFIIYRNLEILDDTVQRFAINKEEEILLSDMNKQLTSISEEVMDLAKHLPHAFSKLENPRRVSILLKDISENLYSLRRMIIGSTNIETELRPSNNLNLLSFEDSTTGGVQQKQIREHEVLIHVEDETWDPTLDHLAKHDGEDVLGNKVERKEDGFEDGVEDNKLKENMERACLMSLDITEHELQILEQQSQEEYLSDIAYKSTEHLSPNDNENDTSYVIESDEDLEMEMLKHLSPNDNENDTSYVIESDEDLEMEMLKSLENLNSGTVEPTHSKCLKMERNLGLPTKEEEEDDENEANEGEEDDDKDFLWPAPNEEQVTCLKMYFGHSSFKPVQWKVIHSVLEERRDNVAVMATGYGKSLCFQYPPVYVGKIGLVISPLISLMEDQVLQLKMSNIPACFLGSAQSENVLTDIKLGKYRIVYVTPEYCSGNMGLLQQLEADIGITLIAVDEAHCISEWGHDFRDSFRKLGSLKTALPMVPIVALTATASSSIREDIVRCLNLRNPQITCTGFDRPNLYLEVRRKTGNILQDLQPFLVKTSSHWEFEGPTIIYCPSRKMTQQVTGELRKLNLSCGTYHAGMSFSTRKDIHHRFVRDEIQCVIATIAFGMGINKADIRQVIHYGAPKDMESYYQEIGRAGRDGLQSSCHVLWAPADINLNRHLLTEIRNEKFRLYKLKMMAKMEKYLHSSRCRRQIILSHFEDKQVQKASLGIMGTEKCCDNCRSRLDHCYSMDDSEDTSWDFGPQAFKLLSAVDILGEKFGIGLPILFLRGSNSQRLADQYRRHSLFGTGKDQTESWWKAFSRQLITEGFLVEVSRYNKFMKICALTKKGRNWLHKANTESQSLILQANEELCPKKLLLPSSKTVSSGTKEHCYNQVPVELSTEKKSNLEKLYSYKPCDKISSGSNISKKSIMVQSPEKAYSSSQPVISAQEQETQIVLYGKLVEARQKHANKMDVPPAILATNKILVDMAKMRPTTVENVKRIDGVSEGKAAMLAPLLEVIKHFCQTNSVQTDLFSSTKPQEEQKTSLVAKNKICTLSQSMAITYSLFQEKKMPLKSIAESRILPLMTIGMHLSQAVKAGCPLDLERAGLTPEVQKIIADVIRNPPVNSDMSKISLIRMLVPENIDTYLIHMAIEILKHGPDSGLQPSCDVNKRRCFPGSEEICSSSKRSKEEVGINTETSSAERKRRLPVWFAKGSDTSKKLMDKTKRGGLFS

| Compound | IC50 (WRN enzyme) [nM] | IC50 [1] [nM] | IC50 [2] [nM] | inhibition at 38.15 pM [2, 4] [%] | inhibition at 38.15 pM [2, 5] [%] | inhibition at 38.15 pM [2, 6] [%] | inhibition at 0.000152588 µM [2, 4] [%] | inhibition at 0.000152588 µM [2, 5] [%] | inhibition at 0.000152588 µM [2, 6] [%] | inhibition at 0.000610352 µM [2, 4] [%] | inhibition at 0.000610352 µM [2, 5] [%] | inhibition at 0.000610352 µM [2, 6] [%] | inhibition at 0.00976562 µM [2, 4] [%] | inhibition at 0.00976562 µM [2, 5] [%] | inhibition at 0.00976562 µM [2, 6] [%] | inhibition at 0.0390625 µM [2, 4] [%] | inhibition at 0.0390625 µM [2, 5] [%] | inhibition at 0.0390625 µM [2, 6] [%] | inhibition at 0.15625 µM [2, 4] [%] | inhibition at 0.15625 µM [2, 5] [%] | other results |
| --- | --- | --- | --- | --- | --- | --- | --- | --- | --- | --- | --- | --- | --- | --- | --- | --- | --- | --- | --- | --- | --- |
| CCc1c(N2CCN(C(=O)c3ncnc(C)c3O)CC2)c(=O)n2nc(-c3cc4c(s3)COC4)nc2n1CC(=O)Nc1ccc(C(F)(F)F)cc1Cl [P7] | 1.4 | > 10000 | 39 | 6.64 | 2.01 | 11.3 | 3.66 | -6.35 | 13.7 | 4.19 | -2.7 | 11.1 | 2.23 | -0.534 | 4.98 | 54.8 | 56 | 53.6 | 99 | 98.8 | inhibitory activity on SW48 cells ([2]; 39 nM): high inhibitory activity; inhibition at 0.15625 µM [2, 6]: 99.2%; inhibition at 0.625 µM [2, 4]: 100%; inhibition at 0.625 µM [2, 5]: 100%; inhibition at 0.625 µM [2, 6]: 100%; inhibition at […] [2, 4]: 101%; inhibition at […] [2, 5]: 101%; inhibition at 10 µM [2, 4]: 101%; inhibition at 10 µM [2, 5]: 101%; inhibition at 10 µM [2, 6]: 101%; TGI ([3]; 20 mg/kg): 82%; Tumor Volume D 1 ([3]; 20 mg/kg): 158 mm^3; Tumor volume D 21 ([3]; 20 mg/kg): 491 mm^3; TGI ([3]; 50 mg/kg): 105%; Tumor Volume D 1 ([3]; 50 mg/kg): 158 mm^3; Tumor volume D 21 ([3]; 50 mg/kg): 71 mm^3; TGI ([3]; 120 mg/kg): 105%; Tumor Volume D 1 ([3]; 120 mg/kg): 174 mm^3; Tumor volume D 21 ([3]; 120 mg/kg): 24 mm^3 |
| CCc1c(N2CCN(C(=O)c3ncnc(C)c3O)CC2)c(=O)n2nc(-c3cc4c(s3)COC4)nc2n1CC(=O)Nc1ccc(Br)cc1Cl [P24] | 1.1 | > 10000 | 39 | -4.41 | -3.47 | -5.36 | -3.37 | -6.51 | -0.227 | -6.66 | -6.64 | -6.68 | -8.31 | -8.85 | -7.77 | 43.7 | 40.3 | 47.1 | 98.7 | 98.6 | inhibition at 0.00244141 µM [2, 4]: -5.26%; inhibition at 0.00244141 µM [2, 5]: -4.87%; inhibition at 0.00244141 µM [2, 6]: -5.64%; inhibition at 0.15625 µM [2, 6]: 98.8%; inhibition at 0.625 µM [2, 4]: 97.4%; inhibition at 0.625 µM [2, 5]: 97.6%; inhibition at 0.625 µM [2, 6]: 97.2%; inhibition at […] [2, 4]: 97.6%; inhibition at […] [2, 5]: 96.9%; inhibition at […] [2, 6]: 98.3%; inhibition at 10 µM [2, 4]: 97.3%; inhibition at 10 µM [2, 5]: 97.4%; inhibition at 10 µM [2, 6]: 97.3%; TGI ([3]; 50 mg/kg): 105%; Tumor Volume D 1 ([3]; 50 mg/kg): 161 mm^3; Tumor volume D 21 ([3]; 50 mg/kg): 72 mm^3 |
